Results published in patent US20240252456A1, “ORAL COMPOSITION, SKIN COSMETIC AND HAIR COSMETIC” (MARUZEN PHARMACEUTICALS CO., LTD., priority 2021, published 2024).

What was measured:
B16 melanoma cells = experiment: Melanin production suppressive action test on B16 melanoma cells; format: cell-based; settings: 4 days, corrected by cell survival rate
Protocol: B16 melanoma cells were cultured using Dulbecco's modified Eagle's medium (DMEM) containing 10% FBS, and then the cells were collected by a trypsin treatment. The collected cells were diluted with DMEM containing 10% FBS and 1 mmol/L theophylline to a cell density of 24.0×10^4 cells/mL, then seeded with 300 μL per well in a 48-well plate, and cultured for 6 hours.
After the culturing was completed, 300 μL of each of test samples (Samples 1 to 3, see Table 5 below for final concentrations) dissolved in DMEM containing 10% FBS and 1 mmol/L theophylline was added to each well, and culturing was performed for 4 days. As a control, culturing was performed in the same manner using DMEM containing 10% FBS and 1 mmol/L theophylline to which no sample was added. After the culturing was completed, the medium was removed, 200 μL of 2 mol/L NaOH solution was added, the cells were disrupted using an ultrasonic disrupter, and the absorbance at a wavelength of 475 nm was measured. From the measured absorbance value, the amount of melanin was calculated based on a calibration curve created using synthetic melanin (available from SIGMA).
In addition, in order to measure the cell survival rate, after culturing in the same manner as above, the medium was removed, the cells were washed with 400 μL of PBS(−) buffer solution, 200 μL of Neutral Red dissolved at a final concentration of 0.05 mg/mL in DMEM containing 10% FBS was added to each well, and culturing was performed for 2.5 hours. After culturing, the neutral red solution was removed, and 200 μL of ethanol/acetic acid solution (ethanol:acetic acid:water=50:1:49) was added to each well to extract the dye. After extraction, the absorbance at a wavelength of 540 nm was measured. From the obtained results, the melanin production suppression rate (%) corrected by the cell survival rate was calculated using the following equation.
Terms in the equation represent the following respective ones. • A: Melanin amount without sample addition • B: Melanin amount with test sample addition • C: Absorbance at wavelength 540 nm without sample addition • D: Absorbance at wavelength 540 nm with test sample addition

DPP IV (rhCD26) = target: T1, DPP IV (rhCD26) (Homo sapiens, UniProt P27487); experiment: DPP IV activity inhibitory action test; format: biochemical; settings: read-out: DPP IV activity inhibition rate; for inhibition at 2500 µM: 2500 μmol/L; for inhibition at 10000 µM: 10000 μmol/L
T1 construct: purchased R&D Systems
Protocol: In a 96-well plate, 25 μL of each of test samples (Samples 1 to 3, see Table 3 below for final concentrations) prepared with 25 mM Tris-HCl buffer solution (pH 8.0) and 25 μL of 0.4 μg/mL DPP IV (available from R&D Systems, rhCD26) solution prepared with the above buffer solution were mixed and preincubated at 37° C. for 5 minutes. After that, 50 μL of 0.5 mM Gly-Pro-p-NA-Tos (available from PEPTIDE […], INC.) prepared with the above buffer solution was added, and the mixture was reacted at 37° C. for 90 minutes. After the reaction was completed, the absorbance at a wavelength of 415 nm was measured. From the obtained results, the DPP IV activity inhibition rate (%) was calculated using the following equation.
(§1) Terms in the equation represent the following respective ones. • A: Absorbance at wavelength 415 nm without sample addition and with enzyme addition • B: Absorbance at wavelength 415 nm without sample addition and without enzyme addition • C: Absorbance at wavelength 415 nm with test sample addition and with enzyme addition • D: Absorbance at wavelength 415 nm with test sample addition and without enzyme addition

elastase type III = target: T2, elastase type III (Sus scrofa, UniProt P00772); experiment: Elastase activity inhibitory action test; format: biochemical; settings: read-out: Elastase activity inhibition rate; for inhibition at 1000 µM: 1000 μmol/L
T2 construct: purchased SIGMA-Aldrich type III
Protocol: In a 96-well microplate, 50 μL of each of test samples (Samples 1 to 3, see Table 8 below for final concentrations) prepared with 0.2 mol/L Tris-HCl buffer solution (pH 8.0) and 50 μL of 20 μg/mL elastase type III (available from SIGMA-Aldrich) solution was mixed. After that, 100 μL of 0.4514 mg/mL N-succinyl-Ala-Ala-Ala-p-nitroanilide (available from SIGMA-Aldrich) prepared with the above buffer solution was added, and the mixture was reacted at 25° C. for 15 minutes. After the reaction was completed, the absorbance at a wavelength of 415 nm was measured. In addition, a blank test without enzyme addition was performed in the same manner and correction was made. From the obtained results, the elastase activity inhibition rate (%) was calculated using the following equation.
as §1

FLG mRNA = experiment: Filaggrin (FLG) mRNA expression promotive action test; format: cell-based, human; settings: NHEK, 24 hours, corrected with GAPDH
Protocol: Normal human neonatal epidermal keratinocytes (NHEK) were precultured using normal human epidermal keratinocyte growth medium (KGM), and the cells were collected by a trypsin treatment. The collected cells were diluted with KGM to a cell density of 15×10^4 cells/mL, then seeded with 2 mL portions in a 6-well plate (30×10^4 cells/well), and cultured overnight under conditions of 37° C. and 5% CO2. After culturing, the medium was replaced with normal human epidermal keratinocyte basal medium (KBM, the above KGM without addition of growth additives (hEGF, BPE, insulin, antibacterial agents, hydrocortisone)), and culturing was further performed for 24 hours.
After culturing for 24 hours, the medium was removed, and 2 mL of each of test samples (Samples 1 to 3, see Table 18 below for final concentrations) dissolved in KBM was added to each well, and culturing was performed under conditions of 37° C. and 5% CO2 for 24 hours. As a control, culturing was performed in the same manner using KBM to which no sample was added. After culturing, the medium was removed, total RNA was extracted using ISOGEN II (available from NIPPON GENE CO., LTD.), each RNA amount was measured using a spectrophotometer, and the total RNA was prepared so as to be 150 ng/μL.
For FLG and GAPDH as an internal standard, the expression levels of mRNA were measured using the above total RNA as a template. Detection was performed through a two-step real-time RT-PCR reaction using a real-time PCR device, Thermal Cycler Dice Real Time System III (available from Takara Bio Inc.), with PrimeScript™ RT Master Mix (Perfect Real Time) (available from Takara Bio Inc.) and TB Green® Fast qPCR Mix (available from Takara Bio Inc.). Primers available from Takara Bio Inc. were used. The expression level of FLG mRNA was obtained as a value corrected with a value of GAPDH based on total RNA preparations prepared from cells cultured “with test sample addition” and “without sample addition.” From the obtained values, the FLG mRNA expression promotion rate (%) was calculated using the following equation.
Terms in the equation represent the following respective ones. • A: Corrected value with test sample addition • B: Corrected value without sample addition

T1 sequence (P27487 whole entry): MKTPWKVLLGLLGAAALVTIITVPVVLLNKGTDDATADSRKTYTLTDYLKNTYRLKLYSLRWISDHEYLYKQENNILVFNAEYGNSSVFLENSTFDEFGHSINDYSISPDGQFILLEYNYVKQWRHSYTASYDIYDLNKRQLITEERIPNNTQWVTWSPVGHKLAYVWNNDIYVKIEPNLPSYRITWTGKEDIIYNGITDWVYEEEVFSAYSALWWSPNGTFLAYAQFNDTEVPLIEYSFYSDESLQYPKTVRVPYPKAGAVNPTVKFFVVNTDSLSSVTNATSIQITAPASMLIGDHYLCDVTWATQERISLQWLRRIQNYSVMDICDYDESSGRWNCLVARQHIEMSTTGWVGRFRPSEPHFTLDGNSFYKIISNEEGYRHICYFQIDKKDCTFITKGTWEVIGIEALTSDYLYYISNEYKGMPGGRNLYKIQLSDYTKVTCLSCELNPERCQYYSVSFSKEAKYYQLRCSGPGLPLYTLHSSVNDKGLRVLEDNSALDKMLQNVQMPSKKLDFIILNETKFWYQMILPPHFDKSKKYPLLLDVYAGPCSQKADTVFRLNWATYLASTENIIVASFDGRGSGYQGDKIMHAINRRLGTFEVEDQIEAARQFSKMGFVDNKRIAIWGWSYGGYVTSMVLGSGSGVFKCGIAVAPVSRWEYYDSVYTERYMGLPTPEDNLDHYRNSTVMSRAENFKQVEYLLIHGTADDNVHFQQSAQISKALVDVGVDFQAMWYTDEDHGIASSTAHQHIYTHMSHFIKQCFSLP
T2 sequence (P00772 27-266): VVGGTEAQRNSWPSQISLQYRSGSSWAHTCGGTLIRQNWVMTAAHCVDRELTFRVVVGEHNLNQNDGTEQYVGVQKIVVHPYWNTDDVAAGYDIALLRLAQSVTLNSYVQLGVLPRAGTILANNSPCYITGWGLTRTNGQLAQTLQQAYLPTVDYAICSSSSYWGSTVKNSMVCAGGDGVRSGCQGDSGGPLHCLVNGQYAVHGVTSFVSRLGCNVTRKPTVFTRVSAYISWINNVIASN

Question: Which results are given for `O=C(O)CCc1ccc(O)c(O)c1` [Sample 1, 3,4-Dihydroxyhydrocinnamic acid]?
Answer: Melanin production suppression rate (B16 melanoma cells; 250 μmol/L): 63.8%; inhibition at 625 µM (DPP IV (rhCD26); 625 μmol/L): 7.2%; inhibition at 2500 µM (DPP IV (rhCD26)): 17.6%; inhibition at 10000 µM (DPP IV (rhCD26)): 97.1%; inhibition at 250 µM (elastase type III; 250 μmol/L): 3.2%; inhibition at 500 µM (elastase type III; 500 μmol/L): 6.7%; inhibition at 1000 µM (elastase type III): 8.1%; FLG mRNA expression promotion rate (FLG mRNA; 25 μmol/L): 197.2%; FLG mRNA expression promotion rate (FLG mRNA; 100 μmol/L): 342.0%

Question: `O=C(O)CCc1ccc(O)cc1` [Sample 2, 3-(4-Hydroxyphenyl)propionic acid] was tested. Which “Melanin production suppression rate” value (B16 melanoma cells; 62.5 μmol/L) did it give?
Answer: 8.5%

Question: What about the “Melanin production suppression rate” value (B16 melanoma cells; 250 μmol/L) of the same compound?
Answer: 40.2%

Question: And the “Melanin production suppression rate” value (B16 melanoma cells; 1000 μmol/L)?
Answer: 69.5%

Question: What about the inhibition at 10000 µM (DPP IV (rhCD26)) of the same compound?
Answer: 96.9%

Question: What about the inhibition at 1000 µM (elastase type III) of the same compound?
Answer: 4.2%

Question: And the “FLG mRNA expression promotion rate” value (FLG mRNA; 25 μmol/L)?
Answer: 168.2%

Question: What about the “FLG mRNA expression promotion rate” value (FLG mRNA; 100 μmol/L) of the same compound?
Answer: 129.8%

Question: For `O=C(O)CCc1ccccc1` [Sample 3, 3-phenylpropionic acid], which “Melanin production suppression rate” value (B16 melanoma cells; 250 μmol/L) is on record?
Answer: 46.2%

Question: And the “Melanin production suppression rate” value (B16 melanoma cells; 1000 μmol/L)?
Answer: 57.0%

Question: What about the inhibition at 2500 µM (DPP IV (rhCD26)) of the same compound?
Answer: 4.1%

Question: What about the inhibition at 10000 µM (DPP IV (rhCD26)) of the same compound?
Answer: 99.8%

Question: And the inhibition at 1000 µM (elastase type III)?
Answer: 5%

Question: And the “FLG mRNA expression promotion rate” value (FLG mRNA; 25 μmol/L)?
Answer: 196.6%
